Experimental data reported in US5837868A, “Process for preparation of chiral 3-amino-pyrrolidine and analogous bicyclic compounds” (Abbott Laboratories, priority 1997, dated 1998).
In brackets after ≈: the same amount, converted by molar mass. Counter-ions that a name gives are not always drawn. Like-named read-outs stand apart in the source and are kept apart here.

Experiments:
Staph. aureus ATCC 6538P = test: In vitro antibacterial activity, agar dilution MIC; type: cell-based; conditions: Staphylococcus aureus, ATCC6538P
Protocol: (§1) Each plate was inoculated with 1:100 (or 1:10 for slow-growing strains, primarily Micrococcus and Streptococcus) dilutions of up to 32 different microorganisms, using a Steers replicator block calibrated to deliver approximately 10^4 colony forming units (CFUs). The inoculated plates were incubated at from about 35° C. to about 37° C. for approximately 20-24 hours. In addition, a control plate using BHI agar containing no test compound was prepared and incubated at the beginning and at the end of each test. The quinolone antibacterial ciprofloxacin was used as a control ("Cntl").
(§2) The MIC was defined as the lowest concentration of test compound yielding no growth (a slight haze or sparsely isolated colonies at the inoculum spot) as compared to the growth control containing no test compound.

Staph. aureus A5177 = test: In vitro antibacterial activity, agar dilution MIC; type: cell-based; conditions: Staphylococcus aureus
Protocol: as §1, §2

Staph. aureus 5278 = test: In vitro antibacterial activity, agar dilution MIC; type: cell-based; conditions: Staphylococcus aureus
Protocol: as §1, §2

Staph. aureus 642A = test: In vitro antibacterial activity, agar dilution MIC; type: cell-based; conditions: Staphylococcus aureus
Protocol: as §1, §2

Staph. aureus NCTC10649M = test: In vitro antibacterial activity, agar dilution MIC; type: cell-based; conditions: Staphylococcus aureus
Protocol: as §1, §2

Staph. aureus CMX 553 = test: In vitro antibacterial activity, agar dilution MIC; type: cell-based; conditions: Staphylococcus aureus, CMX553
Protocol: as §1, §2

[1] = system: Staph. aureus 1775 Cipro. R.; test: In vitro antibacterial activity, agar dilution MIC; type: cell-based; conditions: Staphylococcus aureus
Protocol: as §1, §2

Staph. epidermidis 3519 = test: In vitro antibacterial activity, agar dilution MIC; type: cell-based; conditions: Staphylococcus epidermidis
Protocol: as §1, §2

[2] = system: Entero. faecium ATCC 8043; test: In vitro antibacterial activity, agar dilution MIC; type: cell-based; conditions: Enterococcus faecium, ATCC8043
Protocol: as §1, §2

Strep. bovis A5169 = test: In vitro antibacterial activity, agar dilution MIC; type: cell-based; conditions: Streptococcus equinus
Protocol: as §1, §2

[3] = system: Strep. agalactiae CMX 508; test: In vitro antibacterial activity, agar dilution MIC; type: cell-based; conditions: Streptococcus agalactiae, CMX508
Protocol: as §1, §2

Strep. pyogenes EES61 = test: In vitro antibacterial activity, agar dilution MIC; type: cell-based; conditions: Streptococcus pyogenes
Protocol: as §1, §2

[4] = system: Strep. pyogenes 930 CONST; test: In vitro antibacterial activity, agar dilution MIC; type: cell-based; conditions: Streptococcus pyogenes
Protocol: as §1, §2

[5] = system: Strep. pyogenes 2548 INDUC; test: microbe, parasite or virus in culture; type: cell-based; conditions: Streptococcus pyogenes, 2548INDUC
Protocol: as §1, §2

M. luteus ATCC 9341 = test: In vitro antibacterial activity, agar dilution MIC; type: cell-based; conditions: Micrococcus luteus, ATCC9341
Protocol: as §1, §2

M. luteus ATCC 4698 = test: In vitro antibacterial activity, agar dilution MIC; type: cell-based; conditions: Micrococcus luteus, ATCC4698
Protocol: as §1, §2

Escherichia coli Juhl = test: In vitro antibacterial activity, agar dilution MIC; type: cell-based
Protocol: as §1, §2

E. coli SS = test: In vitro antibacterial activity, agar dilution MIC; type: cell-based; conditions: Escherichia coli
Protocol: as §1, §2

E. coli DC-2 = test: In vitro antibacterial activity, agar dilution MIC; type: cell-based; conditions: Escherichia coli, DC2
Protocol: as §1, §2

E. coli H560 = test: In vitro antibacterial activity, agar dilution MIC; type: cell-based; conditions: Escherichia coli
Protocol: as §1, §2

E. coli KNK 437 = test: In vitro antibacterial activity, agar dilution MIC; type: cell-based; conditions: Escherichia coli, KNK437
Protocol: as §1, §2

[6] = system: Enter. aerogenes ATCC 13048; test: In vitro antibacterial activity, agar dilution MIC; type: cell-based; conditions: Klebsiella aerogenes, ATCC13048
Protocol: as §1, §2

[7] = system: Klebs. pneumoniae ATCC 8045; test: In vitro antibacterial activity, agar dilution MIC; type: cell-based; conditions: Klebsiella pneumoniae, ATCC8045
Protocol: as §1, §2

[8] = system: Providencia stuartii CMX 640; test: In vitro antibacterial activity, agar dilution MIC; type: cell-based; conditions: CMX640
Protocol: as §1, §2

P. aeruginosa BMH 10 = test: In vitro antibacterial activity, agar dilution MIC; type: cell-based; conditions: Pseudomonas aeruginosa, BMH10
Protocol: as §1, §2

P. aeruginosa A5007 = test: In vitro antibacterial activity, agar dilution MIC; type: cell-based; conditions: Pseudomonas aeruginosa
Protocol: as §1, §2

P. aeruginosa K799/WT = test: In vitro antibacterial activity, agar dilution MIC; type: cell-based; conditions: Pseudomonas aeruginosa
Protocol: as §1, §2

P. aeruginosa K799/61 = test: In vitro antibacterial activity, agar dilution MIC; type: cell-based; conditions: Pseudomonas aeruginosa, K799/61
Protocol: as §1, §2

Pseudomonas cepacia 296I = test: In vitro antibacterial activity, agar dilution MIC; type: cell-based; conditions: Burkholderia cepacia
Protocol: as §1, §2

[9] = system: Acinetob. calcoaceticus CMX 669; test: In vitro antibacterial activity, agar dilution MIC; type: cell-based
Protocol: as §1, §2

P. aeruginosa 2862 = test: In vitro antibacterial activity, agar dilution MIC; type: cell-based; conditions: Pseudomonas aeruginosa, 2862
Protocol: as §1, §2

Myco. smegmatis ATCC 114 = test: In vitro antibacterial activity, agar dilution MIC; type: cell-based; conditions: Mycolicibacterium smegmatis, ATCC114
Protocol: as §1, §2

[10] = system: Nocardia asteroides ATCC 9970; test: In vitro antibacterial activity, agar dilution MIC; type: cell-based; conditions: ATCC9970
Protocol: as §1, §2

P. aeruginosa 5263 = test: microbe, parasite or virus in culture; conditions: Pseudomonas aeruginosa
Protocol: as §1, §2

Candida albicans CCH 442 = test: In vitro antibacterial activity, agar dilution MIC; conditions: Candida albicans, CCH442
Protocol: as §1, §2

[11] = Staph. aureus CMX 553, BHI agar dilution, 20-24 hours, read-out: MIC
[12] = Strep. agalactiae CMX 508, BHI agar dilution, 20-24 hours, read-out: MIC
[13] = Klebs. pneumoniae ATCC 8045, BHI agar dilution, 20-24 hours, read-out: MIC
[14] = Providencia stuartii CMX 640, BHI agar dilution, 20-24 hours, read-out: MIC
[15] = Nocardia asteroides ATCC 9970, BHI agar dilution, 20-24 hours, read-out: MIC

CC[C@H]1CN(c2c(F)cn3c(=O)c(C(=O)O)cc(C4CC4)c3c2C)C[C@H]1N (relative stereo) [Ex. 3, 8-(cis-3-amino-4-ethylpyrrolidin-1-yl)-1-cyclopropyl-7-fluoro-4H-9-methyl-4-oxo-quinolizine-3-carboxylic acid hydrochloride diastereomer A]
MIC (Staph. aureus ATCC 6538P; Staph. aureus ATCC 6538P, BHI agar dilution, 20-24 hours, read-out: MIC): 0.01 µg/mL
MIC (Staph. aureus A5177; Staph. aureus A5177, BHI agar dilution, 20-24 hours, read-out: MIC): 0.02 µg/mL
MIC (Staph. aureus 5278; Staph. aureus 5278, BHI agar dilution, 20-24 hours, read-out: MIC): 0.02 µg/mL
MIC (Staph. aureus 642A; Staph. aureus 642A, BHI agar dilution, 20-24 hours, read-out: MIC): 0.02 µg/mL
MIC (Staph. aureus NCTC10649M; Staph. aureus NCTC10649M, BHI agar dilution, 20-24 hours, read-out: MIC): 0.01 µg/mL
MIC (Staph. aureus CMX 553; [11]): 0.02 µg/mL
MIC ([1]; Staph. aureus 1775 Cipro. R., BHI agar dilution, 20-24 hours, read-out: MIC): 0.78 µg/mL
MIC (Staph. epidermidis 3519; Staph. epidermidis 3519, BHI agar dilution, 20-24 hours, read-out: MIC): 0.02 µg/mL
MIC [2]: 0.1 µg/mL
MIC (Strep. bovis A5169; Strep. bovis A5169, BHI agar dilution, 20-24 hours, read-out: MIC): 0.1 µg/mL
MIC [3, 12]: 0.1 µg/mL
MIC (Strep. pyogenes EES61; Strep. pyogenes EES61, BHI agar dilution, 20-24 hours, read-out: MIC): 0.1 µg/mL
MIC ([4]; 930CONST): 0.05 µg/mL
MIC [5]: 0.05 µg/mL
MIC (M. luteus ATCC 9341): 0.1 µg/mL
MIC (M. luteus ATCC 4698): 0.1 µg/mL
MIC (Escherichia coli Juhl; Escherichia coli Juhl, BHI agar dilution, 20-24 hours, read-out: MIC): 0.02 µg/mL
MIC (E. coli SS; E. coli SS, BHI agar dilution, 20-24 hours, read-out: MIC): 0.002 µg/mL
MIC (E. coli DC-2; E. coli DC-2, BHI agar dilution, 20-24 hours, read-out: MIC): 0.2 µg/mL
MIC (E. coli H560; E. coli H560, BHI agar dilution, 20-24 hours, read-out: MIC): 0.01 µg/mL
MIC (E. coli KNK 437; E. coli KNK 437, BHI agar dilution, 20-24 hours, read-out: MIC): 0.1 µg/mL
MIC ([6]; Enter. aerogenes ATCC 13048, BHI agar dilution, 20-24 hours, read-out: MIC): 0.05 µg/mL
MIC [7, 13]: 0.02 µg/mL
MIC [8, 14]: 0.78 µg/mL
MIC (P. aeruginosa BMH 10; P. aeruginosa BMH 10, BHI agar dilution, 20-24 hours, read-out: MIC): 0.39 µg/mL
MIC (P. aeruginosa A5007; P. aeruginosa A5007, BHI agar dilution, 20-24 hours, read-out: MIC): 0.39 µg/mL
MIC (P. aeruginosa K799/WT; P. aeruginosa K799/WT, BHI agar dilution, 20-24 hours, read-out: MIC): 0.39 µg/mL
MIC (P. aeruginosa K799/61): 0.02 µg/mL
MIC (Pseudomonas cepacia 296I; Pseudomonas cepacia 296I, BHI agar dilution, 20-24 hours, read-out: MIC): 0.78 µg/mL
MIC ([9]; Acinetob. calcoaceticus CMX 669, BHI agar dilution, 20-24 hours, read-out: MIC): 0.02 µg/mL
MIC (P. aeruginosa 2862): 3.1 µg/mL
MIC (Myco. smegmatis ATCC 114; Myco. smegmatis ATCC 114, BHI agar dilution, 20-24 hours, read-out: MIC): 0.02 µg/mL
MIC [10, 15]: 0.39 µg/mL
MIC (P. aeruginosa 5263): 3.1 µg/mL
MIC (Candida albicans CCH 442): > 100 µg/mL

O=C(O)c1cn(C2CC2)c2cc(N3CCNCC3)c(F)cc2c1=O [Control, ciprofloxacin, reference compound]
MIC (Staph. aureus ATCC 6538P): 0.05 µg/mL (≈ 0.151 µM)
MIC (Staph. aureus A5177; A5177): 0.39 µg/mL (≈ 1.18 µM)
MIC (Staph. aureus 5278; 5278): 0.39 µg/mL (≈ 1.18 µM)
MIC (Staph. aureus 642A; 642A): 0.39 µg/mL (≈ 1.18 µM)
MIC (Staph. aureus NCTC10649M; NCTC10649M): 0.39 µg/mL (≈ 1.18 µM)
MIC (Staph. aureus CMX 553; [11]): 0.78 µg/mL (≈ 2.35 µM)
MIC [1]: > 100 µg/mL
MIC (Staph. epidermidis 3519; 3519): 0.39 µg/mL (≈ 1.18 µM)
MIC ([2]; Entero. faecium ATCC 8043, BHI agar dilution, 20-24 hours, read-out: MIC): 0.78 µg/mL (≈ 2.35 µM)
MIC (Strep. bovis A5169; A5169): 1.56 µg/mL (≈ 4.71 µM)
MIC [3, 12]: 0.78 µg/mL (≈ 2.35 µM)
MIC (Strep. pyogenes EES61; EES61): 0.39 µg/mL (≈ 1.18 µM)
MIC ([4]; Strep. pyogenes 930 CONST, BHI agar dilution, 20-24 hours, read-out: MIC): 0.78 µg/mL (≈ 2.35 µM)
MIC [5]: 0.39 µg/mL (≈ 1.18 µM)
MIC (M. luteus ATCC 9341): 3.1 µg/mL (≈ 9.36 µM)
MIC (M. luteus ATCC 4698): 1.56 µg/mL (≈ 4.71 µM)
MIC (Escherichia coli Juhl; Escherichia coli): 0.05 µg/mL (≈ 0.151 µM)
MIC (E. coli SS): 0.005 µg/mL (≈ 0.0151 µM)
MIC (E. coli DC-2): 0.2 µg/mL (≈ 0.604 µM)
MIC (E. coli H560; H560): 0.01 µg/mL (≈ 0.0302 µM)
MIC (E. coli KNK 437): 0.2 µg/mL (≈ 0.604 µM)
MIC [6]: 0.05 µg/mL (≈ 0.151 µM)
MIC [7, 13]: 0.01 µg/mL (≈ 0.0302 µM)
MIC [8, 14]: 0.78 µg/mL (≈ 2.35 µM)
MIC (P. aeruginosa BMH 10): 0.1 µg/mL (≈ 0.302 µM)
MIC (P. aeruginosa A5007; A5007): 0.2 µg/mL (≈ 0.604 µM)
MIC (P. aeruginosa K799/WT; K799/WT): 0.1 µg/mL (≈ 0.302 µM)
MIC (P. aeruginosa K799/61): 0.02 µg/mL (≈ 0.0604 µM)
MIC (Pseudomonas cepacia 296I; 296I): 3.1 µg/mL (≈ 9.36 µM)
MIC [9]: 0.39 µg/mL (≈ 1.18 µM)
MIC (P. aeruginosa 2862): 12.5 µg/mL (≈ 37.7 µM)
MIC (Myco. smegmatis ATCC 114): 1.56 µg/mL (≈ 4.71 µM)
MIC [10, 15]: 25 µg/mL (≈ 75.4 µM)
MIC (P. aeruginosa 5263): 12.5 µg/mL (≈ 37.7 µM)
MIC (Candida albicans CCH 442): > 100 µg/mL

Cc1c(N2C[C@@H]3CCCN[C@@H]3C2)c(F)cn2c(=O)c(C(=O)O)cc(C3CC3)c12 [Ex. 1, 1-cyclopropyl-8-(S,S-2,8-diaza-8-bicyclo[4.3.0]-nonyl)-7-fluoro-4H-9-methyl-4-oxo-quinolizine-3-carboxylic acid hydrochloride]
MIC (Staph. aureus ATCC 6538P): 0.01 µg/mL
MIC (Staph. aureus A5177; A5177): 0.02 µg/mL
MIC (Staph. aureus 5278; 5278): 0.01 µg/mL
MIC (Staph. aureus 642A; 642A): 0.02 µg/mL
MIC (Staph. aureus NCTC10649M; NCTC10649M): 0.01 µg/mL
MIC (Staph. aureus CMX 553): 0.05 µg/mL
MIC [1]: 0.39 µg/mL
MIC (Staph. epidermidis 3519; 3519): 0.02 µg/mL
MIC [2]: 0.1 µg/mL
MIC (Strep. bovis A5169; A5169): 0.05 µg/mL
MIC [3]: 0.05 µg/mL
MIC (Strep. pyogenes EES61; EES61): 0.05 µg/mL
MIC ([4]; 930CONST): 0.05 µg/mL
MIC [5]: 0.02 µg/mL
MIC (M. luteus ATCC 9341): 0.1 µg/mL
MIC (M. luteus ATCC 4698): 0.1 µg/mL
MIC (Escherichia coli Juhl; Escherichia coli): 0.005 µg/mL
MIC (E. coli SS): 0.002 µg/mL
MIC (E. coli DC-2): 0.05 µg/mL
MIC (E. coli H560; H560): 0.005 µg/mL
MIC (E. coli KNK 437): 0.05 µg/mL
MIC [6]: 0.02 µg/mL
MIC [7]: 0.01 µg/mL
MIC ([8]; Providencia stuartii): 0.39 µg/mL
MIC (P. aeruginosa BMH 10): 0.1 µg/mL
MIC (P. aeruginosa A5007; A5007): 0.2 µg/mL
MIC (P. aeruginosa K799/WT; K799/WT): 0.2 µg/mL
MIC (P. aeruginosa K799/61): 0.02 µg/mL
MIC (Pseudomonas cepacia 296I; 296I): 0.78 µg/mL
MIC [9]: 0.02 µg/mL
MIC (P. aeruginosa 2862): 3.1 µg/mL
MIC (Myco. smegmatis ATCC 114): 0.02 µg/mL
MIC ([10]; Nocardia asteroides): 3.1 µg/mL
MIC (P. aeruginosa 5263): 3.1 µg/mL
MIC (Candida albicans CCH 442): > 100 µg/mL
